± gives the expanded uncertainty stated by the source.
Conditions: Crystal

Nc1c[nH]c(=O)[nH]c1=O [2,4(1H,3H)-pyrimidinedione, 5-amino-]
Conditions | vapor or sublimation pressure [kPa]
433.11 K | 1.941e-05 ± 2e-06
433.16 K | 2.072e-05 ± 2.1e-06
436.7 K | 2.56e-05 ± 2.6e-06
438.65 K | 3.333e-05 ± 3.4e-06
440.48 K | 3.89e-05 ± 3.9e-06
442.32 K | 4.794e-05 ± 4.8e-06
444.14 K | 5.231e-05 ± 5.2e-06
445.07 K | 5.373e-05 ± 5.4e-06
445.96 K | 6.018e-05 ± 6e-06
445.97 K | 5.707e-05 ± 5.7e-06
447.76 K | 6.664e-05 ± 6.7e-06
453.1 K | 9.97e-05 ± 1e-05

O=[N+]([O-])c1cnc(O)nc1O [2,4-pyrimidinedione, 5-nitro-]
Conditions | vapor or sublimation pressure [kPa]
431.25 K | 7.18e-06 ± 7.4e-07
433.14 K | 8.41e-06 ± 8.6e-07
434.95 K | 9.75e-06 ± 1e-06
434.98 K | 1.014e-05 ± 1e-06
436.81 K | 1.154e-05 ± 1.2e-06
438.63 K | 1.3e-05 ± 1.3e-06
440.46 K | 1.62e-05 ± 1.6e-06
442.17 K | 2.096e-05 ± 2.1e-06
442.27 K | 1.978e-05 ± 2e-06
445.93 K | 2.924e-05 ± 2.9e-06
447.76 K | 3.338e-05 ± 3.4e-06
453.11 K | 6.104e-05 ± 6.1e-06

Cn1c(N)cc(=O)n(C)c1=O [6-amino-1,3-dimethyluracil]
Conditions | vapor or sublimation pressure [kPa]
401.59 K | 9.9e-06 ± 1e-06
407.21 K | 1.673e-05 ± 1.7e-06
409 K | 1.845e-05 ± 1.9e-06
409.99 K | 2.309e-05 ± 2.3e-06
410.8 K | 2.478e-05 ± 2.5e-06
412.67 K | 2.874e-05 ± 2.9e-06
412.82 K | 3.133e-05 ± 3.1e-06
415.86 K | 4.477e-05 ± 4.5e-06
416.43 K | 3.968e-05 ± 4e-06
418.41 K | 5.345e-05 ± 5.4e-06
420.22 K | 6.082e-05 ± 6.1e-06
425.66 K | 0.0001053 ± 1.1e-05

Cn1c(N)cc(=O)[nH]c1=O [6-amino-1-methyluracil]
Conditions | vapor or sublimation pressure [kPa]
456.84 K | 2.824e-05 ± 2.8e-06
458.65 K | 3.188e-05 ± 3.2e-06
459.55 K | 3.807e-05 ± 3.8e-06
462.22 K | 4.621e-05 ± 4.6e-06
463.15 K | 5.015e-05 ± 5e-06
464.07 K | 5.429e-05 ± 5.5e-06
466.07 K | 6.44e-05 ± 6.5e-06
466.1 K | 6.38e-05 ± 6.4e-06
467.87 K | 7.507e-05 ± 7.5e-06
468.75 K | 7.967e-05 ± 8e-06
469.67 K | 8.597e-05 ± 8.6e-06
470.56 K | 9.083e-05 ± 9.1e-06

Nc1cc(O)nc(O)n1 [6-aminouracil]
Conditions | vapor or sublimation pressure [kPa]
478.6 K | 1.394e-05 ± 1.4e-06
478.61 K | 1.375e-05 ± 1.4e-06
480.4 K | 1.661e-05 ± 1.7e-06
482.16 K | 1.922e-05 ± 1.9e-06
483.92 K | 2.132e-05 ± 2.2e-06
485.6 K | 2.413e-05 ± 2.4e-06
485.7 K | 2.415e-05 ± 2.4e-06
487.5 K | 2.821e-05 ± 2.8e-06
489.24 K | 3.158e-05 ± 3.2e-06
491 K | 3.515e-05 ± 3.5e-06
491.02 K | 3.534e-05 ± 3.5e-06
492.65 K | 4.176e-05 ± 4.2e-06

— the NIST ThermoML archive (doi:10.1021/je020215j)
